# Data published in patent publication US11142560B2, “Biphasic single-chain insulin analogues” (Case Western Reserve University, priority 2014, dated 2021).
# Bridge positions count the residues as written; N and C are the ends. Ends that are not written are not given here.
# Biological target: A isoform of the insulin receptor (Homo sapiens, UniProt P06213)
# Experiment: Receptor-binding assay, insulin receptor A isoform
# Conditions: two-site sequential model, read-out: equilibrium dissociation constant / binding constant
# Procedure: The receptor-binding affinities of SCI-57DP and SCI-57PE were determined in relation to wild-type human insulin. The assay employed the A isoform of the insulin receptor. […] The protocol for assay of receptor-binding activities was as follows. Microtiter strip plates (Nunc Maxisorb) were incubated overnight at 4° C. with AU5 IgG (100 μl/well of […] in phosphate-buffered saline). Binding data were analyzed by a two-site sequential model.
# Chain of A isoform of the insulin receptor (P06213 28-746 isoform P06213-2 limits assumed): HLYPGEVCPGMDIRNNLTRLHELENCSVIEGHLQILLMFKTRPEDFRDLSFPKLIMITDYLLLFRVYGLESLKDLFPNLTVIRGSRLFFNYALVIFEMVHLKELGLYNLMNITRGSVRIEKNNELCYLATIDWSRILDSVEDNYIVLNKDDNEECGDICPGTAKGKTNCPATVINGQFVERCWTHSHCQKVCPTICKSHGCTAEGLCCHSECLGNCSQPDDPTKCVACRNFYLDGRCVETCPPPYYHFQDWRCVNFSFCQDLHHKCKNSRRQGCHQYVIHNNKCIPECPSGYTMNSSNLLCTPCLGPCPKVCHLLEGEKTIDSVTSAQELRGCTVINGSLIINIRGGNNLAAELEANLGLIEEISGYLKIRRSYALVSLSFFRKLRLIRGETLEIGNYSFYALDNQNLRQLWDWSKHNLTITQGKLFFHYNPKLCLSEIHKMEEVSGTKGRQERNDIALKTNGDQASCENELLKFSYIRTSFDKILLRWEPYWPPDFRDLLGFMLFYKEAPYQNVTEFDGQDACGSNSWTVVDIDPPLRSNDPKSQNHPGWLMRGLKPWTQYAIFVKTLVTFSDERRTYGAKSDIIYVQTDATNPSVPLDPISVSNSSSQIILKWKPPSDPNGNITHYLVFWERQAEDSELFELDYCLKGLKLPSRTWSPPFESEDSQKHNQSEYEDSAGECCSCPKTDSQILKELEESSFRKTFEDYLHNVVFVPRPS
# Chain of A isoform of the insulin receptor (P06213 763-1382 partner limits assumed): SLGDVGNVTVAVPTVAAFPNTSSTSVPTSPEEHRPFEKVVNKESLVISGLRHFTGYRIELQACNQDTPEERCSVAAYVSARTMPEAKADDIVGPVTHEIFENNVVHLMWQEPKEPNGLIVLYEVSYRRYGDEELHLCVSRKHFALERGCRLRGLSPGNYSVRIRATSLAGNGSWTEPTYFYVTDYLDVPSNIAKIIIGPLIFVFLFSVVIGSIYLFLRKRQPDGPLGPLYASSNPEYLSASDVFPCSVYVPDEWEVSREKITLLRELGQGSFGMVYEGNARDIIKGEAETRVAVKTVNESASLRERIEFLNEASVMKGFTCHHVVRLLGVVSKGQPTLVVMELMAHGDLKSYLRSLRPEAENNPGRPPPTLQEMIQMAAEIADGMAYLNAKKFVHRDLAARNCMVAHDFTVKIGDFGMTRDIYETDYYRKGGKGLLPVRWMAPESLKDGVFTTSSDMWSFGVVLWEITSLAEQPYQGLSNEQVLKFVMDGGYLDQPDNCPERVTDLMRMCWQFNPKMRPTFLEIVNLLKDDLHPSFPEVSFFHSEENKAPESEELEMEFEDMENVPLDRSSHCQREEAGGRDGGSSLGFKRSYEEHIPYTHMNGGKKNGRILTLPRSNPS
row,Sequence,Kd [nM]
1,"FVNQHLCGSHLVEALYLVCGERGFFYTDPTEEGPRRGIVEQCCHSICSLEQLENYCN (disulfide 7-43, 19-56, 42-47) [SCI-57DP]",0.06
2,"FVNQHLCGSHLVEALYLVCGERGFFYTPETEEGPRRGIVEQCCHSICSLEQLENYCN (disulfide 7-43, 19-56, 42-47) [SCI-57PE]",0.08
